Columns and labels:
R4 = experiment: Indicator displacement assay with host:LCG reporter pair, guest R4; type: binding; conditions: association constant, competitive dye displacement with LCG, 5 mM phosphate buffer pH 7.3, mean ± SD of triplicate
Excerpt: The binding affinity of the anionic calixarene activators toward cationic peptides was investigated using a small library of highly hydrophilic oligoarginines, from 3 to 8 residues. These peptides are not able to spontaneously transverse zwitterionic artificial membranes in vesicle assays, which allows the accurate evaluation of the calixarenes 1 and 2 as counterion activators without interferences from the transport of the peptide alone.[43]−[45] First, the formation of host–guest complexes between 1/2 and the selected peptides was verified by indicator displacement assays using lucigenin (LCG) as the fluorescent indicator.[46] As previously reported for other sulfonatocalixarene derivatives,[46] the formation of host–guest binding pairs between calixarenes 1/2 in the E- and Z-forms and LCG results in significant static fluorescence quenching (see Figure 2A and Figures S26 and S27). Quantitative analysis of the fluorescence titration data using a 1:1 host:guest binding model allows the determination of the respective binding constants (K) reported in Table 1. As can be observed, both 1/2 display high affinity for the LCG dye, on the 10^7 M^–1 range, which seems to be independent of the nature and conformation of the azobenzene arm. […] The host:LCG binding pairs were then employed in the above-mentioned indicator displacement assays to investigate the binding affinity of oligoarginines toward 1 and 2 (see Figure 2B and Figures S29–S33).
The binding affinities of the counterion activators and peptide complexes were analyzed by indicator displacement assays. The fluorescent dye chosen for these experiments was lucigenin (LCG) due to its complex with the receptor SC4 being well characterized and due to the high variation of emission between its bound and free form. Firstly, the affinity for LCG was calculated for each of the activators, by titrations followed by fluorescence spectroscopy leading to almost full quenching of the emission. For the competitive assays, a concentration of LCG and activator was chosen in order to have approximately 90% of complexed dye and that mixture was then titrated with each of the peptides, leading to the regaining of emission when LCG was release from the complex.
Figure S26 - Fluorescence titration of the lucigenin dye with increasing concentrations of A) E-1 and B) Z–1 in water (5 mM phosphate buffer pH 7.3). LCG concentration was fixed 0.2 µM in all experiments, except for the first E-1 titrations were [LCG]
(1 picture or pasted object on this page, not shown here)
Figure S29 - Indicator displacement titration of the several oligoarginines A) R3 B) R4 C) R6 and D) R8, using SC4:LCG as the reporter pair (5 mM phosphate buffer pH 7.3). LCG and SC4 concentrations were fixed at A) 0.22 and 0.50 µM, for all three replicates, B) 0.22 and 4.7 µM for the first titration and 0.22 and 4.3 µM for the remaining two replicates, C) 0.22 and 0.45 µM and 1.1 and 0.85 µM and D) 0.28 and 0.43 µM and 1.1 and 0.85 µM, respectively, from left to right.
Figure S30 - Indicator displacement titration of the several oligoarginines A) R3 B) R4 C) R6 and D) R8, using E-1:LCG as the reporter pair (5 mM phosphate buffer pH 7.3) LCG and E-1 concentrations were fixed at A) 0.11 and 0.25 µM, for all three replicates, B) 0.22 and 0.5 µM, for the first two titrations and 0.22 and 0.23 µM for the remaining replicate, C) 4.0 and 3.8 µM and 0.22 and 0.5 µM, D) 4 and 3 µM and 0.22 and 0.5 µM, respectively, from left to right. […]

[1] = Light-modulated CF dye efflux assay (in situ irradiation at 500 nm); type: biochemical
Experimental: To this aim, Z-1 and Z-2 were added to EYPC-LUV⊃CF dispersions at fixed concentrations to study the CF release upon in situ light stimulation. […] Irradiation with 500 nm light promotes the conversion of Z-2 into E-2, a stronger counterion activator, leading to ca. 50% of extra dye released as a result of the light-triggered translocation of R6 into the liposome (Figure 4 iii).
Figure 4 (A) Light-modulated dye efflux assays performed with 4 μM R6, 60 nM Z-2, and 15 μΜ EYPC-LUV⊃CF (50 mM CF inside the liposome) and (B) schematization of each phase in the assay. (i) First, the activator Z-2 was added to a liposome solution (ii) followed by the addition of the peptide. (iii) The same sample was irradiated for 25 min at 500 nm, leading to a significant increase in CF release. (iv) Finally, in order to normalize the measurement for the maximum emission possible, the vesicles were lysed by addition of a small aliquot of Triton X-100. […]
until the emission stabilizes and a maximum of release is reached. If the counterion activator has the capacity to activate the transport, CF should be co-transported to the exterior of the liposome with the influx of the counterion-peptide complex. Finally, Triton X-100 is added to the solution to dissolve the vesicles and obtain the maximum amount of CF that could be released from the liposomes and emit in the […]
EC50 and Ymax values were calculated from the values of corrected emission at the plateau that is reached, according to previously reported assays.7
Light-activated release assays. The light-modulation offered by this novel counterion activator was tested by performing dye efflux assays as previously described, with the addition of an interval in the measurement where the solution was irradiated at 500 nm. […]
Figure S44 - Light-modulated dye efflux assays done with the peptide A) R6, 4 µM, and B) R8, 5 µM, with a fixed concentration of Z-1 of 0.20 µM for both assays. 40 µM of EYPC-LUV and 20 µΜ EYPC-LUV⊃CF (50 mM of CF) were used in the first assay and 30 µM of EYPC-LUV and 7 µΜ EYPC-LUV⊃CF (50 mM of CF) were used in the latter. The assay was performed in the same way as the dye release assays (addition of the peptide marked with a red dashed arrow) with an additional irradiation step for an interval of 30 to 40 min (marked with a black arrow), leading to an increase in release of ~15% for the peptide R6 and only 7% for the peptide R8. […]
Figure S45 - Light-modulated dye efflux assay done with the peptide R8, 4 µM, with a fixed concentration of Z-2 of 16 nM. 15 µΜ of EYPC-LUV⊃CF (50 mM of CF) were used and the light activation step was done with a single 25 min irradiation cycle at 500 nm (marked with a black arrow). The increase of release obtained was of 14%. […]

O=S(=O)([O-])c1cc2c(O)c(c1)Cc1cc(S(=O)(=O)[O-])cc(c1O)Cc1cc(S(=O)(=O)[O-])cc(c1OCCCCCCOc1ccc(/N=N/c3ccccc3)cc1)Cc1cc(S(=O)(=O)[O-])cc(c1O)C2.[Li+].[Li+].[Li+].[Li+] [E-1]
Apparent affinity constant K for R4 (R4): (3.9 ± 0.3) × 10^7 M^–1

CCCCc1ccc(/N=N/c2ccc(OCCCOc3c4cc(S(=O)(=O)[O-])cc3Cc3cc(S(=O)(=O)[O-])cc(c3O)Cc3cc(S(=O)(=O)[O-])cc(c3O)Cc3cc(S(=O)(=O)[O-])cc(c3O)C4)cc2)cc1.[Li+].[Li+].[Li+].[Li+] [E-2]
Apparent affinity constant K for R4 (R4): (1.2 ± 0.6) × 10^8 M^–1

O=S(=O)([O-])c1cc2c(O)c(c1)Cc1cc(S(=O)(=O)[O-])cc(c1O)Cc1cc(S(=O)(=O)[O-])cc(c1OCCCCCCOc1ccc(/N=N\c3ccccc3)cc1)Cc1cc(S(=O)(=O)[O-])cc(c1O)C2.[Li+].[Li+].[Li+].[Li+] [Z-1]
Increase in CF release upon irradiation, R6 ([1]; 4 µM R6, 0.20 µM Z-1, 40 µM EYPC-LUV and 20 µM EYPC-LUV⊃CF (50 mM CF), irradiation 30 to 40 min at 500 nm): ~ 15%
Increase in CF release upon irradiation, R8 ([1]; 5 µM R8, 0.20 µM Z-1, 30 µM EYPC-LUV and 7 µM EYPC-LUV⊃CF (50 mM CF), irradiation 30 to 40 min at 500 nm): 7%
Apparent affinity constant K for R4 (R4): (3.2 ± 0.7) × 10^7 M^–1

CCCCc1ccc(/N=N\c2ccc(OCCCOc3c4cc(S(=O)(=O)[O-])cc3Cc3cc(S(=O)(=O)[O-])cc(c3O)Cc3cc(S(=O)(=O)[O-])cc(c3O)Cc3cc(S(=O)(=O)[O-])cc(c3O)C4)cc2)cc1.[Li+].[Li+].[Li+].[Li+] [Z-2]
Extra dye released upon irradiation at 500 nm, R6 ([1]; 4 μM R6, 60 nM Z-2, 15 μM EYPC-LUV⊃CF (50 mM CF), irradiated 25 min at 500 nm): ca. 50%
Increase in CF release upon irradiation, R8 ([1]; 4 µM R8, 16 nM Z-2, 15 µM EYPC-LUV⊃CF (50 mM CF), single 25 min irradiation cycle at 500 nm): 14%
Apparent affinity constant K for R4 (R4): (7.8 ± 1.3) × 10^7 M^–1

Source: PMC10288505, “Photoswitchable Calixarene Activators for Controlled Peptide Transport across Lipid Membranes” (Journal of the American Chemical Society, 2023)
